# In ChEMBL document CHEMBL1156695, “The novel primaquine derivatives of N-alkyl, cycloalkyl or aryl urea: synthesis, cytostatic and antiviral activity evaluations” (Eur J Med Chem, 2008):
# pEC50, pIC50: −log10 of the molar value. The source made the active and inactive calls. The calls are words filed in the database; no cut-off is given here.
# Legend:
# [1] = Cytostatic activity against human WI38 cells after 72 hrs by MTT assay; format: cell-based; conditions: WI-38, 72 h
# Human betaherpesvirus 5 [2] = assay: Antiviral activity against HCMV AD169 infected in HEL cells assessed as reduction of virus-induced cytopathogenicity after 3 days; format: functional, organism-based; conditions: Human betaherpesvirus 5, AD169, HEL, 72 h
# Human betaherpesvirus 5 [3] = assay: Antiviral activity against HCMV Davis infected in HEL cells assessed as reduction of virus-induced cytopathogenicity after 3 days; format: functional, organism-based; conditions: Human betaherpesvirus 5, Davis, 72 h
# [4] = Cytotoxicity against HEL cells assessed as change in cell morphology; format: cell-based; conditions: human
# [5] = Cytotoxicity against HEL cells assessed as reduction in cell growth; format: cell-based; conditions: human
# Human alphaherpesvirus 1 = assay: Antiviral activity against HSV1 infected in HEL cells assessed as reduction of virus-induced cytopathogenicity; format: functional, organism-based
# Human alphaherpesvirus 2 = assay: Antiviral activity against HSV2 infected in HEL cells assessed as reduction of virus-induced cytopathogenicity; format: functional, organism-based
# [6] = test system: Vesicular stomatitis virus; assay: Antiviral activity against vesicular stomatitis virus infected in HEL cells assessed as reduction of virus-induced cytopathogenicity; format: functional, organism-based
# [7] = test system: Mammalian orthoreovirus 1; assay: Antiviral activity against Reovirus 1 infected in african green monkey Vero cells assessed as reduction of virus-induced cytopathogenicity; format: functional, organism-based
# Human respirovirus 3 = assay: Antiviral activity against parainfluenza virus 3 infected in african green monkey Vero cells assessed as reduction of virus-induced cytopathogenicity; format: functional, organism-based
# Sindbis virus = assay: Antiviral activity against Sindbis virus infected in african green monkey Vero cells assessed as reduction of virus-induced cytopathogenicity; format: functional, organism-based
# Coxsackievirus B4 [8] = assay: Antiviral activity against Coxsackievirus B4 infected in african green monkey Vero cells assessed as reduction of virus-induced cytopathogenicity; format: functional, organism-based
# Punta Toro virus = assay: Antiviral activity against Punta Toro virus infected in african green monkey Vero cells assessed as reduction of virus-induced cytopathogenicity; format: functional, organism-based
# [9] = test system: Vesicular stomatitis virus; assay: Antiviral activity against vesicular stomatitis virus infected in HeLa cells assessed as reduction of virus-induced cytopathogenicity; format: functional, organism-based
# Coxsackievirus B4 [10] = assay: Antiviral activity against Coxsackievirus B4 infected in HeLa cells assessed as reduction of virus-induced cytopathogenicity; format: functional, organism-based
# [11] = test system: Respiratory syncytial virus; assay: Antiviral activity against respiratory syncytial virus infected in HeLa cells assessed as reduction of virus-induced cytopathogenicity; format: functional, organism-based
# L1210 = assay: Cytostatic activity against mouse L1210 cells after 72 hrs by MTT assay; format: functional, cell-based; conditions: L1210, 72 h
# CCRF-CEM = assay: Cytostatic activity against human CEM cells after 72 hrs by MTT assay; format: functional, cell-based
# [12] = Cytostatic activity against human Molt4/C8 cells after 72 hrs by MTT assay; format: functional, cell-based; conditions: MOLT-4, 72 h
# HeLa = assay: Cytostatic activity against human HeLa cells after 72 hrs by MTT assay; format: functional, cell-based
# MIA PaCa-2 = assay: Cytostatic activity against human MiaPaCa2 cells after 72 hrs by MTT assay; format: functional, cell-based; conditions: MIA PaCa-2, 72 h
# SW-620 = assay: Cytostatic activity against human SW620 cells after 72 hrs by MTT assay; format: functional, cell-based; conditions: SW-620, 72 h
# MCF7 = assay: Cytostatic activity against human MCF7 cells after 72 hrs by MTT assay; format: functional, cell-based; conditions: MCF7, 72 h
# NCI-H460 = assay: Cytostatic activity against human H460 cells after 72 hrs by MTT assay; format: functional, cell-based; conditions: NCI-H460, 72 h
SMILES,pIC50 [1],pEC50 (Human betaherpesvirus 5 [2]),pEC50 (Human betaherpesvirus 5 [3]),MCC [4] [µM],CC50 [5] [µM],Activity (Human alphaherpesvirus 1),Activity (Human alphaherpesvirus 2),Activity [6],Activity [7],Activity (Human respirovirus 3),Activity (Sindbis virus),Activity (Coxsackievirus B4 [8]),Activity (Punta Toro virus),Activity [9],Activity (Coxsackievirus B4 [10]),Activity [11],pIC50 (L1210),pIC50 (CCRF-CEM),pIC50 [12],pIC50 (HeLa),also measured
COc1cc(NC(C)CCCNC(=O)NCC2CCCCC2)c2ncccc2c1 (centres undefined),< 4.00,4.82,5.12,100,74,inactive,inactive,inactive,inactive,inactive,inactive,inactive,inactive,inactive,inactive,inactive,4.66,4.66,4.28,< 4.00,pIC50 (MIA PaCa-2): 4.22; pIC50 (SW-620): 4.21; pIC50 (MCF7): 4.21; pIC50 (NCI-H460): < 4.00
COc1cc(NC(C)CCCNC(=O)NCCc2ccccc2)c2ncccc2c1 (centres undefined),< 4.00,4.90,5.54,> 100,56,inactive,inactive,inactive,inactive,inactive,inactive,inactive,inactive,inactive,inactive,inactive,4.62,4.47,4.35,< 4.00,pIC50 (MIA PaCa-2): 4.52; pIC50 (SW-620): 4.49; pIC50 (MCF7): 4.57; pIC50 (NCI-H460): 4.27
COc1cc(NC(C)CCCNC(=O)NC2CCCC2)c2ncccc2c1 (centres undefined),4.54,< 4.70,4.92,100,56,inactive,inactive,inactive,inactive,inactive,inactive,inactive,inactive,inactive,inactive,inactive,4.39,4.39,4.36,4.68,pIC50 (MIA PaCa-2): 4.72; pIC50 (SW-620): 4.72; pIC50 (MCF7): 4.52; pIC50 (NCI-H460): 4.60
COc1cc(NC(C)CCCNC(=O)NCc2ccncc2)c2ncccc2c1 (centres undefined),5.00,4.87,5.92,100,72,inactive,inactive,inactive,inactive,inactive,inactive,inactive,inactive,inactive,inactive,inactive,5.52,5.54,4.62,4.74,pIC50 (MIA PaCa-2): 4.70; pIC50 (SW-620): 5.70; pIC50 (MCF7): 4.52; pIC50 (NCI-H460): 4.32
CCN(CC)C(=O)NCCCC(C)Nc1cc(OC)cc2cccnc12 (centres undefined),< 4.00,4.31,4.59,> 100,> 100,inactive,inactive,inactive,inactive,inactive,inactive,inactive,inactive,inactive,inactive,inactive,3.68,3.85,3.81,4.24,pIC50 (MIA PaCa-2): < 4.00; pIC50 (SW-620): < 4.00; pIC50 (MCF7): < 4.20; pIC50 (NCI-H460): < 4.00
COc1cc(NC(C)CCCNC(=O)n2nnc3ccccc32)c2ncccc2c1 (centres undefined) [PRIMAQUINE BENZOTRIAZOLIDE],< 4.00,< 4.00,< 4.52,> 100,72,inactive,inactive,inactive,inactive,inactive,inactive,inactive,inactive,inactive,inactive,inactive,3.90,< 4.00,4.13,4.15,pIC50 (MIA PaCa-2): 4.08; pIC50 (SW-620): < 4.00; pIC50 (MCF7): < 4.00; pIC50 (NCI-H460): < 4.00
